# Patent US20070009575A1, “Novel use of antisecretory factor” (priority 2003, published 2007)
# Test system: freeze-injured brain tissue
# Assay type: in vivo, rat
# Conditions: 6 days after freezing injury
# From the text: The rats were anaesthetized by the inhalation of isofluorane, and had their heads shaved. The skin was cut open in the mid sagittal plane on the skull. The calvarium was exposed on the left side between the bregma and the lambda. The periostium was detached from the bone, which then was rinsed. Thereafter, great care was taken to remove blood and any fluid from the calvarium as that may impair the subsequent procedure. A probe made of brass, having a cylindric 4 mm long end piece with a diameter of 3 mm, was cooled by immersion in a standardized manner in liquid nitrogen. The cooled probe was thereafter applied for 40 s on the calvarium in between the lambda and bregma, 4 mm lateral to the sagittal mid line. The probe was then removed and the skin wound sutured. The application of the freezing probe resulted transiently in that the brain tissue underlying the exposure site turn frozen. It ought to be stressed that the skull was not opened and no fractures or other signs of gross damage induced. The animals moved afterwards without any obvious problems, behaved normally and ingested food and drinking fluid close to as those untreated, after having recovered from the anaesthesia. Rats (body weight 180-350 g at the start of the experiments), male and female, were supplied with standard pelleted food and tap water prior to and after the brain injury. At the day of injury, the rat were anaesthetized and prepared as described in experiment 2. The freezing probe was applied once for 40 seconds. After suturing the skin wound in the skull and recovered from the anaesthesia, the rats were allowed to move freely. All rats received twice daily for 5 days, starting on the day of surgery, an intravenous injection of 1-10 μg per kg body weight of a synthetic peptide, being a fragment of AF, comprising amino acids 36-51, i.e. composed of 16 amino acids. It was dissolved in saline and prepared freshly prior to each injection. There was no intravenous injection of the peptide on the day of sacrifice, day 6. […] Six days after the freezing injury, the rats were sacrificed and fixed by perfusion as described. […] There were no bleedings in or on the brain. […] The penumbra appeared to be affected by minor oedema. […] Irregularly distributed swellings and beadings of axons and dendrites were sparse. […] There was, however, a variation in the extent of the neuroprotection exerted by the injected peptide.
# [1] = peptide i.v. 1-10 μg per kg twice daily for 5 days
# [2] = peptide i.v. twice daily for 5 days, vs rats of experiment 2
substance,measurement,setting,value
"fragment of AF, comprising amino acids 36-51: synthetic peptide, being a fragment of AF, comprising amino acids 36-51, i.e. composed of 16 amino acids (VCHSKTRSNPENNVGL; listed as Homo sapiens)",bleedings in or on the brain,[1],no bleedings
same,oedema in the penumbra,[1],minor oedema
same,shallow depression of the central parts of the injured area,[1],not marked and in some cases difficult to identify for certain
same,extent of brain injury on opening the skull bone,"peptide i.v. 1-10 μg per kg twice daily for 5 days, vs standard pellets and tap water only",less extensive brain injury
same,irregularly distributed swellings and beadings of axons and dendrites,peptide i.v. twice daily for 5 days,sparse
same,proliferation of neural stem and progenitor cells in the SGZ,"peptide i.v. twice daily for 5 days, hippocampus",increased proliferation
same,occurrence of damaged cells (light microscopy of stained sections),[2],less extensive occurrence of damaged cells
same,residing extravasation of blood (light microscopy),[2],rarely any residing extravasation of blood
same,astrogliosis in the penumbra region,"peptide i.v. twice daily for 5 days, vs standard pellets and tap water only",not as extensive and wide-spread
